The values below come from patent US5112863A, “Antipsychotic drug” (Nippon Oil & Fats Co., Ltd., priority 1989, dated 1992).

The structures appear in SMILES notation.

In one data set the test system is glycine binding site. Briefly: Intracranial administration with 7-chlorokynurenic acid, phencyclidine-induced locomotor activity and stereotypy. It is filed as in vivo, rats. To be noted: 200 mg/kg with 7-chlorokynurenic acid (allosteric antagonist of glycine binding site) dosed in the brain. On the procedure:
(§1) Method: the action of antipsychotic was estimated by a method of Sturgen et al. (Eur. J. Pharmacol 76, 37-53, 1981). Namely, medicines suspended in 0.1% Tween 80 were dosed in the abdomen of Wistar rats (Weight: 200-250 g, 6 rats/group). After ten minutes, phencyclidine dissolved in physiological saline (10 mg/kg) was dosed intraperitoneally. After ten minutes, locomotor activity and stereotypy score were estimated at intervals of 20 minutes by 6 grades.
Rats were anesthetized with pentobarbital (40 mg/kg, intruperitoneally) and mounted on a stereotaxic frame. For the intracranical administration of 7-chlorokynurenicocid, the guide cannulae were fixed to the skull. Beginning 5-7 days after surgery, bilateral intracranial injections were performed in the non-anesthetized rats with cannulae attached by poly ethylene tubes to two 10 μl Hamilton syringes. The injection site was A.P. -0.8 (anterior to bregma), V. +2.0, L.±1.5 according to the atlas of Paxinos and Watson (1982). The medicine 5 μl was injected in four minutes a minute after inserting the needle. After the injection the injection needle was kept in the brain for five minutes and removed. After ten minutes from the beginning of the injection, phencyclidine was dosed intraperitoneally.

For a further data set, the system named is Wistar rats. Briefly: Antipsychotic action test: phencyclidine-induced locomotor activity and stereotypy (method of Sturgen et al.). The format is in vivo. The settings on record: for Locomotor activity score / Stereotypy score: 10 min before phencyclidine 10 mg/kg i.p., 30 minutes, grades 0-5; for Dose dependence of locomotor activity and stereotypy score: 30 minutes after pretreatment and dosage of phencyclidine; for Control of locomotor activity and stereotypy score: group dosed 100 mg/kg; for Statistical significance of lowering of locomotor activity and stereotypy score: group dosed more than 50 mg/kg, P<0.01; for Effect on locomotor activity and stereotypy score compared with NMD-Ser and NMD-Ala: phencyclidine-dosed rats, dose not stated. On the procedure: as §1
1. Sometimes, movement within localized area of cage.
2. Movement over a small area of cage, intermittent activity emitted at a low-moderate rate.
3. Movement over a small area of cage, activity emitted continuously and at a moderate-rapid rate.
4. Movement over a large area of cage, activety is intermittent and emitted at a low-moderate rate.
5. Movement over a large area of cage, activety is emitted continuously and at a moderate-rapid rate.
1. Locomotor activity, sniffing and grooming more frequent than observed for control.
2. Higher frequency of sniffing, rearing or turning than in 1.
3. Moderate rate and intermittent sniffing, rearing, turning or backpedaling.
4. Rapid rate and continuous turning, backpedaling, sniffing.
5. Dyokinetic extension and flexion of limbs, head and neck.

For data set [1] the following is noted: background statement; cited from earlier work.
The next data set relates to GABA system. The settings on record: via a GABA system; Japanese Patent Publications; Biochemical Pharmacol., 32, 2751-2755, 1983; cited from earlier work.
The conditions of data set [2]: dosed in a living body; background statement; cited from earlier work.

With `CCCCCCCCCCCCCC(=O)N[C@H](CO)C(=O)O` [NMD-Ser, N-myristoyl-D-serine], the “Locomotor activity and stereotypy score observed at a dose of N-myristoyl-D-serine alone, when dosed with 7-chlorokynurenic acid” value in the data set on glycine binding site was “are not observed”. Also, the Locomotor activity score with Wistar rats (1 mg/kg i.p.) amounted to 3.7 ± 0.2; with Wistar rats (10 mg/kg i.p.) it was 3.3 ± 0.2; in the data set with Wistar rats (50 mg/kg i.p., P < 0.01), 2.0 ± 0.3; in the data set with Wistar rats (100 mg/kg i.p., P < 0.01) it was 1.5 ± 0.5; in the data set on Wistar rats (200 mg/kg i.p., P < 0.01), 1.5 ± 0.3. The Stereotypy score is recorded as 3.2 ± 0.3 with Wistar rats (1 mg/kg i.p.); 3.2 ± 0.3 with Wistar rats (10 mg/kg i.p.); 1.7 ± 0.2 in the data set with Wistar rats (50 mg/kg i.p., P < 0.01); 1.2 ± 0.3 in the data set on Wistar rats (100 mg/kg i.p., P < 0.01); 1.5 ± 0.2 with Wistar rats (200 mg/kg i.p., P < 0.01). Also, in the data set with Wistar rats, the “Dose dependence of locomotor activity and stereotypy score” value is listed as “the scores lessen with the decrease of the dose”. Moreover, the “Control of locomotor activity and stereotypy score” value in the data set on Wistar rats was “nearly controlled”. The “Statistical significance of lowering of locomotor activity and stereotypy score” value in the data set on Wistar rats is on record as “statistical significant difference (P<0.01) is found”.

With `CN(C)CCCN1c2ccccc2Sc2ccc(Cl)cc21` [chlorpromazine], the Side effect entry in data set [1] is “unsatisfactorily side effect, for example, myogelosis, mouth dry, sleepiness and constipation”.

In the case of `CCCCC(=O)N[C@H](CO)C(=O)O` [N-pentanoyl-D-serine], the “Effect on locomotor activity and stereotypy score compared with NMD-Ser and NMD-Ala” value with Wistar rats is on record as “the same effect is observed”.

In the case of `CCCCCCCC/C=C\CCCCCCCC(=O)N[C@H](CO)C(=O)O` [N-oleoyl-D-serine], the “Effect on locomotor activity and stereotypy score compared with NMD-Ser and NMD-Ala” value in the data set on Wistar rats was “the same effect is observed”.

Regarding `CCCCCNCC(N)=O` [2-n-pentyl amino aceto amide], the “Anticonvulsant functions for convulsion induced with bicuculline” value in the data set on GABA system is listed as “anticonvulsant functions”.

In the case of `NCC(=O)O` [glycine], in data set [2], the “Passage through blood brain barrier” value is “can not pass through blood brain barrier”.

For `CCCCC(=O)NCC(=O)O` [2-pentanoyl amino acetic acid], the “Anticonvulsant functions for convulsion induced with bicuculline” value in the data set with GABA system was “anticonvulsant functions”.

Take `CCCCCCCCCCCCCC(=O)N[C@H](C)C(=O)O` [NMD-Ala, N-myristoyl-D-alanine]: the Locomotor activity score in the data set on Wistar rats (1 mg/kg i.p.) was determined as 2.8 ± 0.2; in the data set with Wistar rats (10 mg/kg i.p.), 2.4 ± 0.4; in the data set on Wistar rats (50 mg/kg i.p., P < 0.01), 2.2 ± 0.4; in the data set with Wistar rats (100 mg/kg i.p., P < 0.01), 0.7 ± 0.3; with Wistar rats (200 mg/kg i.p., P < 0.01), 1.5 ± 0.3. The Stereotypy score in the data set with Wistar rats (1 mg/kg i.p.) stood at 3.0 ± 0.4; in the data set with Wistar rats (10 mg/kg i.p.), 2.4 ± 0.2; with Wistar rats (50 mg/kg i.p., P < 0.01), 2.0 ± 0.3; in the data set with Wistar rats (100 mg/kg i.p., P < 0.01), 0.8 ± 0.3; in the data set with Wistar rats (200 mg/kg i.p., P < 0.01), 1.3 ± 0.4. In addition, the “Dose dependence of locomotor activity and stereotypy score” value in the data set with Wistar rats is recorded as “the scores lessen with the decrease of the dose”. In addition, in the data set on Wistar rats, the “Control of locomotor activity and stereotypy score” value is on record as “nearly controlled”. In addition, the “Statistical significance of lowering of locomotor activity and stereotypy score” value with Wistar rats is on record as “statistical significant difference (P<0.01) is found”.
